Test results reported in patent US20260250318A1, “COMPOSITIONS AND METHODS FOR CROSSING THE BLOOD BRAIN BARRIER” (VOYAGER THERAPEUTICS, INC., priority 2022, published 2026).

Legend:
[1] = test system: brains, heart, liver, muscle, and DRG of the NHPs; test: Maturation of TTM-001 and TTM-002 capsids, NGS enrichment in NHP tissues; format: in vivo; conditions: relative to AAV9 control
Outline: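 Variants carry mutations within and flanking the loop IV peptide insert: positions 450–466 were triplet-randomized, while positions 449–466 received low-frequency point mutations. The combined pool went into two NHPs, and each peptide was scored by NGS enrichment ratio against AAV9.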

[2] = test system: brain; test: Matured TTM-001 and TTM-002 variants, NGS enrichment in mouse brain; format: in vivo, mice; conditions: relative to AAV9 control
[3] = NGS fold-enrichment, DRG of NHPs
[4] = NGS fold-enrichment, RNA, brain of NHPs
[5] = NGS fold-enrichment, heart of NHPs
[6] = NGS fold-enrichment, liver DNA of NHPs
[7] = NGS fold-enrichment, liver RNA of NHPs
[8] = NGS fold-enrichment, muscle of NHPs
[9] = NGS fold-enrichment, brain of mice
[10] = NGS fold-enrichment of RNA, NHP brain
[11] = NGS fold-enrichment, NHP liver DNA
[12] = NGS fold-enrichment, NHP liver RNA
[13] = NGS fold-enrichment, NHP muscle
[14] = NGS fold-enrichment, mouse brain
[15] = NGS fold-enrichment of matured AAV capsid variants, NHP brain, RNA

Sequence | Fold Enrichment relative to AAV9, DRG (NHP) [1, 3] [fold] | Fold Enrichment relative to AAV9, Brain (NHP) [1, 4] [fold] | Fold Enrichment relative to AAV9, Heart (NHP) [1, 5] [fold] | Fold Enrichment relative to AAV9, Liver DNA (NHP) [1, 6] [fold] | Fold Enrichment relative to AAV9, Liver RNA (NHP) [1, 7] [fold] | Fold Enrichment relative to AAV9, Muscle (NHP) [1, 8] [fold] | Fold Enrichment relative to AAV9, Brain (Mouse) [2, 9] [fold] | Fold Enrichment relative to AAV9, Brain (NHP) [1, 10] [fold] | Fold Enrichment relative to AAV9, DRG (NHP) ([1]; NGS fold-enrichment, NHP DRG) [fold] | Fold Enrichment relative to AAV9, Heart (NHP) ([1]; NGS fold-enrichment, NHP heart) [fold] | Fold Enrichment relative to AAV9, Liver DNA (NHP) [1, 11] [fold] | Fold Enrichment relative to AAV9, Liver RNA (NHP) [1, 12] [fold] | Fold Enrichment relative to AAV9, Muscle (NHP) [1, 13] [fold] | Fold Enrichment relative to AAV9, Brain (Mouse) [2, 14] [fold] | Fold Enrichment relative to AAV9, Brain (NHP) [1, 15] [fold] | Fold Enrichment relative to AAV9, DRG (NHP) ([1]; NHP DRG) [fold] | Fold Enrichment relative to AAV9, Heart (NHP) ([1]; NHP heart) [fold] | Fold Enrichment relative to AAV9, Liver DNA (NHP) ([1]; NHP liver, DNA) [fold] | Fold Enrichment relative to AAV9, Liver RNA (NHP) ([1]; NHP liver, RNA) [fold] | Fold Enrichment relative to AAV9, Muscle (NHP) ([1]; NHP muscle) [fold] | also measured
KTINGSGSPHSKAQNTYA | 0.000 | 59.603 | 0.000 | 0.346 | 0.425 | 0.000 | 101.715 |  |  |  |  |  |  |  |  |  |  |  |  |  | 
KAIKGSGSPHSKAQDQQT | 0.000 | 82.258 | 0.000 | 0.000 | 0.108 | 0.000 | 85.178 | 82.258 | 0.000 | 0.000 | 0.000 | 0.108 | 0.000 | 85.178 |  |  |  |  |  |  | 
KTSNESGSPHSKAQNHQT | 0.000 | 75.720 | 0.000 | 0.217 | 0.169 | 0.000 | 70.590 | 75.720 | 0.000 | 0.000 | 0.217 | 0.169 | 0.000 | 70.590 |  |  |  |  |  |  | 
KTINGTGSPHSKAQNHQI | 0.171 | 77.089 | 0.000 | 0.166 | 0.000 | 0.000 | 54.281 | 77.089 | 0.171 | 0.000 | 0.166 | 0.000 | 0.000 | 54.281 |  |  |  |  |  |  | 
KTNNGHDSPHKSVQNQHT |  |  |  |  |  |  |  | 115.172 | 0.000 | 0.083 | 0.062 | 0.000 | 0.000 | 7.934 |  |  |  |  |  |  | 
KTVNGNGSPHSKAQNHQT | 0.000 | 68.889 | 0.000 | 0.030 | 0.000 | 0.000 | 52.482 |  |  |  |  |  |  |  |  |  |  |  |  |  | 
KTESTSGSPHSKAQNQQT | 0.000 | 66.649 | 0.009 | 0.176 | 1.688 | 0.000 | 95.861 |  |  |  |  |  |  |  |  |  |  |  |  |  | 
KTINVSGSPHSKAQGQQT |  |  |  |  |  |  |  |  |  |  |  |  |  |  | 55.870 | 0.000 | 0.191 | 0.040 | 0.592 | 0.000 | Fold Enrichment relative to AAV9, Brain (Mouse) ([2]; mouse brain): 87.211 fold
KTINGSGSPHSKAQHPST | 0.000 | 62.255 | 0.044 | 0.301 | 1.345 | 0.000 | 101.103 |  |  |  |  |  |  |  |  |  |  |  |  |  | 
KTINKEGSPHSKAQNQQT |  |  |  |  |  |  |  |  |  |  |  |  |  |  | 53.006 | 0.000 | 0.029 | 0.111 | 0.177 | 0.000 | Fold Enrichment relative to AAV9, Brain (Mouse) ([2]; mouse brain): 64.520 fold
KTVNGSGSPHSKSQNQQT |  |  |  |  |  |  |  |  |  |  |  |  |  |  | 52.395 | 0.033 | 0.077 | 0.175 | 0.105 | 0.013 | Fold Enrichment relative to AAV9, Brain (Mouse) ([2]; mouse brain): 58.000 fold
KTINGHESPHKSGQNIQP |  |  |  |  |  |  |  | 253.840 | 0.000 | 0.000 | 0.000 | 0.000 | 0.000 | 14.042 |  |  |  |  |  |  | 
KEINGRGSPHSKAQNQQT | 0.239 | 134.390 | 0.000 | 0.232 | 0.000 | 0.000 | 52.311 | 134.390 | 0.239 | 0.000 | 0.232 | 0.000 | 0.000 | 52.311 |  |  |  |  |  |  | 
KNSLGSGSPHSKAQNQQT |  |  |  |  |  |  |  |  |  |  |  |  |  |  | 56.621 | 0.000 | 0.028 | 0.162 | 0.308 | 0.000 | Fold Enrichment relative to AAV9, Brain (Mouse) ([2]; mouse brain): 101.942 fold
KTEDLSGSPHSKAQNQQT |  |  |  |  |  |  |  |  |  |  |  |  |  |  | 54.156 | 0.000 | 0.000 | 0.132 | 1.193 | 0.000 | Fold Enrichment relative to AAV9, Brain (Mouse) ([2]; mouse brain): 70.198 fold
